In brackets after ≈: the same amount, converted by molar mass. Values belong to the compound of their own block, whether it stands above or below them.
Tests used:
[1] = test system: NHDFs intracellular ROS; test: Intracellular antioxidant assay (DCFH-DA) in NHDFs after H2O2 induction; type: cell-based, human; settings: 3 h pre-incubation
Text: (§1) Radical scavenging antioxidant assay was estimated using the colorimetric antioxidant assay kit obtained from Cayman Chemical Company (Ann Arbor, MI, USA). ABTS (2, 2′-Azino-bis-[3-ehthylbenzthiazoline sulphonate]) was used as the chromogen, which changes into a colored monocation radical form (ABTS^•+) by metmyoglobin in the presence of hydrogen peroxide, and monitored by measuring absorption at 750 nm using a plate reader (Envision-PerkinElmer; Waltham, MA, USA). Antioxidant inhibition was calculated based on the discoloration of ABTS by serial concentrations of test compounds added simultaneously with myoglobin and hydrogen peroxide. NHDF cells were cultured in DMEM with 10% fetal bovine serum (FBS) and seeded into black wall 96-well plates and incubated for 24 h before treatment. Cells were pre-treated for 3 h with and without test compounds (0.01–3 µM final concentrations) and labeled with 50 µM of dichloro-dihydro-fluorescein diacetate (DCFH-DA). Total fluorescence (Excitation = 485 nm; Emission = 535 nm) was measured after cells were co-incubated for 20 min with 0.1 mM H2O2 and the test compounds. Cell protection against oxidative stress was calculated using the following formula: Cell protection (%) = [(test compound (%) − hydrogen peroxide-only (%))/([…] − untreated control (%))] × 100.

[2] = Cell-free antioxidant ABTS assay by metmyoglobin; type: biochemical
Text: as §1

[3] = target: T1, PME-1 (Protein phosphatase methylesterase 1) (Homo sapiens, UniProt Q9Y570); test: Demethylation of PP2A by PME-1, radioactive filter binding assay; type: biochemical; settings: GSE flavonoids / grape seed components; read-out: IC50, PP2A demethylation activity assay
T1 sequence (Q9Y570 1-386): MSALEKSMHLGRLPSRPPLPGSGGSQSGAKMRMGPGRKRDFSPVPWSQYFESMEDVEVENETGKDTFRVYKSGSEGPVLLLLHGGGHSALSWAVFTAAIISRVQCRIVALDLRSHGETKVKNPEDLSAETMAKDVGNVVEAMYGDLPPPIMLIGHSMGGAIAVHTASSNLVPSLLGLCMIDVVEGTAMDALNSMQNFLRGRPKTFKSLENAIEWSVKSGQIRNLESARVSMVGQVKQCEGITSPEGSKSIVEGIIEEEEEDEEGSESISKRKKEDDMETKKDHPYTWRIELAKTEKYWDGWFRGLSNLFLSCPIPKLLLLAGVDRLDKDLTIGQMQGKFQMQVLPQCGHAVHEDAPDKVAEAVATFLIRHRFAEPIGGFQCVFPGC
Experimental: [^3H]-labeled methylated PP2A AC dimer was prepared by incubating PP2A, LCMT1 and [^3H]-SAM (PerkinElmer; Waltham, MA, USA) in 50 mM MOPS-Na (pH 7.2), 5 mM MgCl2, and 1 mM DTT at room temperature for 1 h. Demethylation of PP2A by PME-1 (Protein phosphatase methylesterase 1) was measured using the radioactive filter binding assay format. 20 nM PME-1 was incubated for 15 min with extract or compound, then 20 nM of [^3H]-labeled methylated PP2A AC dimer was added. Reactions were run at room temperature for 30 min then applied to a 96-well filter plate (MilliporeSigma; Burlington, MA, USA.) containing 30% TCA where proteins were precipitated and separated from the excess of [^3H]-SAM by washing with 70% ethanol. [^3H]-incorporation was measured using TopCount NXT scintillation counter (PerkinElmer; Waltham, MA, USA). IC50 values were generated from dose–response curves using a four-parameter logistic curve fit in SigmaPlot (Systat Software, Inc., Palo Alto, CA, USA).

[4] = test system: NHDFs-UVA-IL-6; test: UVA-induced IL-6 release from NHDFs (ELISA); type: cell-based, human
Experimental: (§2) Primary normal human epidermal keratinocytes (NHEKs) and dermal fibroblasts (NHDFs) were purchased from ThermoFisher (Carlsbad, CA, USA) and cultured in EpiLife™ medium (NHEKs) supplemented with Human Keratinocyte Growth Supplement (HKGS) or DMEM (NHDFs) + 10% FBS. All cell types were seeded in plates with growth factor-supplemented medium for 24 h and later media was replaced with growth factor-depleted media for an additional 24 h before treatments and grown at normal conditions (5% CO2; 37 °C).
(§3) Cells were pre-incubated for 2–6 h with test materials (1% v/v ethanol vehicle) in fresh growth factor-depleted media in triplicates. NHEKs were induced by 5 ng/mL TPA for 24 h or irradiated with 25 mJ/cm^2 (15 s) broadband 305–12 nm UVB (Daavlin; Bryan, OH, USA) without test materials and incubated for an additional 18 h. NHDFs were irradiated with 12.5 J/cm^2 UVA (350–12 nm; 40 min) and later incubated without test materials for an additional 18 h. Media supernatants were harvested after induction and used to measure levels of Interleukin-6 (IL-6), Interleukin-8 (IL-8), collagenase (pro-MMP1) or tumor necrosis factor-α (TNF-α) by sandwich ELISA kits (BD Biosciences; San Jose, CA, USA or R&D Systems; Minneapolis, MN, USA). Cells were subjected to viability tests by MTS reduction assay (Promega; Madison, WI, USA).
(§4) Statistical significance was determined by ANOVA followed by a Dunnett multiple comparisons test using p-values less than 0.05 as a significant difference. For all biochemical measurements and cytokine levels, samples were assayed in triplicate. Cytokine dose–response curves were generated by fitting data with the Hill, three-parameter equation using the Sigma Plot software, from which the IC50 and maximum inhibition were determined.

[5] = test system: NHEK-UVB-TNFα; test: UVB-induced TNFα release from NHEKs (ELISA); type: cell-based, human
Experimental: as §2, §3, §4

[6] = test system: NHEK-UVB-IL-8; test: UVB-induced IL-8 release from NHEKs (ELISA); type: cell-based, human
Experimental: as §2, §3, §4

[7] = test system: NHEK-TPA-IL-8; test: TPA-induced IL-8 release from NHEKs (ELISA); type: cell-based, human; settings: 5 ng/mL TPA, 24 h
Experimental: as §2
Cells were pre-incubated for 2–6 h with test materials (1% v/v ethanol vehicle) in fresh growth factor-depleted media in triplicates. NHEKs were induced by 5 ng/mL TPA for 24 h or irradiated with 25 mJ/cm^2 (15 s) broadband 305–12 nm UVB (Daavlin; Bryan, OH, USA) without test materials and incubated for an additional 18 h. NHDFs were irradiated with 12.5 J/cm^2 UVA (350–12 nm; 40 min) and later incubated without test materials for an additional 18 h. […]
as §4, with “For all biochemical measurements and cytokine levels, samples were assayed in triplicate.” left out

[8] = Homo sapiens, NHEK, light or radiation study, UVB 25 mJ/cm^2

IC50 ([1]; Homo sapiens, NHDF, read-out: IC50, intracellular oxidative stress): > 100 µg/mL
IC50, H2O2-induced free radical ROS production [2]: 18.6 µg/mL (≈ 43.2 µM)
SMILES: Cc1c(C)c2c(c(C)c1O)CC[C@@](C)(CCC[C@H](C)CCC[C@H](C)CCCC(C)C)O2 [Vitamin E, α-tocopherol]

IC50 [3]: > 15 µM
IC50 NHDFs-UVA-IL-6 ([4]; UVA 12.5 J/cm^2): 0.01 µg/mL (≈ 0.0515 µM)
IC50 NHEK-UVB-TNFα ([5]; UVB 25 mJ/cm^2): <0.01 µg/mL
IC50 NHEK-UVB-IL-8 ([6]; UVB 25 mJ/cm^2): <0.01 µg/mL
SMILES: COc1cc(/C=C/C(=O)O)ccc1O [Ferulic acid]

IC50 ([4]; Homo sapiens, NHDF, light or radiation study, UVA 12.5 J/cm^2): > 1 µg/mL
IC50 [5, 8]: > 1 µg/mL
IC50 [6, 8]: > 1 µg/mL
SMILES: CC1=C(/C=C/C(C)=C/C=C/C(C)=C/C(=O)O)C(C)(C)CCC1 [ATRA, all-trans retinoic acid]
effect on UVA-induced IL-6 release (in words) ([4]; highest non-toxic dose tested): did not have any effect
effect on UVB-induced TNFα release (in words) ([5]; highest non-toxic dose tested): did not have any effect
effect on UVB-induced IL-8 release (in words) ([6]; highest non-toxic dose tested): did not have any effect

IC50 NHDFs-UVA-IL-6 ([4]; UVA 12.5 J/cm^2): >10 µg/mL
IC50, intracellular oxidative stress [1]: 0.6 µg/mL (≈ 3.41 µM)
IC50, H2O2-induced free radical ROS production [2]: 10.1 µg/mL (≈ 57.3 µM)
IC50 NHEK-UVB-TNFα ([5]; UVB 25 mJ/cm^2): >10 µg/mL
IC50 NHEK-UVB-IL-8 ([6]; UVB 25 mJ/cm^2): >10 µg/mL
SMILES: O=C1O[C@H]([C@@H](O)CO)C(O)=C1O [Vitamin C]

IC50 NHEK-TPA-IL-8 [7]: 0.0005 ng/mL (≈ 1.22e-06 µM)
SMILES: C[C@H]1C[C@H]2[C@@H]3CCC4=CC(=O)C=C[C@]4(C)[C@@]3(F)[C@@H](O)C[C@]2(C)[C@@]1(O)C(=O)CCl [Clobetasol]
